# Earlier results, collected in patent US20210077540A1, “BIOACTIVE GREEN-LIPPED MUSSEL EXTRACTS AND USES THEREOF” (SANFORD LIMITED, priority 2018, published 2021).
# Columns and labels:
# [1] = oral supplementation, meta-analysis of randomized, double-blind, placebo-controlled trials
# [2] = supplementation, women with gestational hypertension incl. pre-eclampsia
compound,measurement,setting,value
N=C(N)NCCC[C@H](N)C(=O)O [L-arginine],"reduction of diastolic blood pressure, pooled estimate",[1],2.7 mmHg
same,"reduction of systolic blood pressure, pooled estimate",[1],5.4 mmHg
same,effect on diastolic blood pressure (in words),[2],reduces diastolic blood pressure
same,effect on length of pregnancy (in words),[2],lengthens pregnancy
